{"source": "paper PMC7672456", "about": "(Nucleic Acids Research, 2020)", "key": {"PfLysRS [1]": {"molecular_target": "T1, PfLysRS (Plasmodium falciparum, UniProt Q8IDJ8)", "T1 sequence (Q8IDJ8 77-583 limits assumed)": "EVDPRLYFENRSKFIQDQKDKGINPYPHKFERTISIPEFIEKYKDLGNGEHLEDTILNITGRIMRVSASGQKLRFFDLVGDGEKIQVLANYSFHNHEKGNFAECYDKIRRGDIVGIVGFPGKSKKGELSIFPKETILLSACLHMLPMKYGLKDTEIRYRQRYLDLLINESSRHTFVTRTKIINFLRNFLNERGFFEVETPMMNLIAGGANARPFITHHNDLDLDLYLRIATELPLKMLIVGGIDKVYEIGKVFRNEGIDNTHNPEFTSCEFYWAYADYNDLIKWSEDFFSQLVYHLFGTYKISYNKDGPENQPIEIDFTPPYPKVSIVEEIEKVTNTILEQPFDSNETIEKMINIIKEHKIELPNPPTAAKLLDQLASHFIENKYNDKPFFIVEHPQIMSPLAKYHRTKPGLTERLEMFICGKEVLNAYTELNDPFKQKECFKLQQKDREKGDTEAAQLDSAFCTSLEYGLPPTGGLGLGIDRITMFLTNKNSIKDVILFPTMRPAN", "assay": "Thermal shift assay", "assay_type": "binding", "conditions": "for increase of Tm of PfLysRS: 200 μM compound"}, "P. falciparum strain 3D7": {"test_system": "P. falciparum strain 3D7", "assay": "In vitro Plasmodium growth assay", "assay_type": "cell-based, Plasmodium falciparum"}, "[2]": {"conditions": "phase I, patients, oral; cited from earlier work"}, "HsLysRS [3]": {"molecular_target": "T2, HsLysRS (Homo sapiens, UniProt Q15046)", "T2 sequence (Q15046 70-581)": "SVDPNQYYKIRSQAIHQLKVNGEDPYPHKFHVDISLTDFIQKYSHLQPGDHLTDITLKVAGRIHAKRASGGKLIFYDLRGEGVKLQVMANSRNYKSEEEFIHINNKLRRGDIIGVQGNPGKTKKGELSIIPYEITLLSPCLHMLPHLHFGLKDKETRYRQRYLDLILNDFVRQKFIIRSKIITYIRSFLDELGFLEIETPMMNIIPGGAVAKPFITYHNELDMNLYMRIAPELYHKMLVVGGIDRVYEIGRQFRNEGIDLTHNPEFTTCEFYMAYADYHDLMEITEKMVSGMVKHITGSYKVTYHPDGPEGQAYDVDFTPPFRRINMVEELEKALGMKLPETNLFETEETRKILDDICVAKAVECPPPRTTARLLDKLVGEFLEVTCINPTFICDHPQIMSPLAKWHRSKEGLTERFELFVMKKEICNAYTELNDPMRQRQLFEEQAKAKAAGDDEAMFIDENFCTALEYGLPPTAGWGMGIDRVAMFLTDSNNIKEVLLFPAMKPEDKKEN", "assay": "Thermal shift assay", "assay_type": "binding", "conditions": "in the presence or absence of L-lysine"}, "PfLysRS [4]": {"molecular_target": "T1, PfLysRS", "assay": "Surface plasmon resonance", "assay_type": "binding"}, "HsLysRS [5]": {"molecular_target": "T2, HsLysRS", "assay": "ATP hydrolysis assay", "assay_type": "biochemical"}, "[6]": {"test_system": "mammalian protein translation system", "assay": "Mammalian protein translation assay in rabbit reticulocyte lysate", "assay_type": "biochemical", "conditions": "firefly luciferase mRNA"}, "PfLysRS [7]": {"molecular_target": "T1, PfLysRS", "conditions": "cited from earlier work"}}}
{"smiles": "COc1cc(N2CCC(N3CCN(C)CC3)CC2)ccc1Nc1ncnc(Nc2ccccc2S(=O)(=O)C(C)C)n1", "note": "[ASP3026, N-{2-Methoxy-4-[4-(4-methylpiperazin-1-yl)piperidin-1-yl]phenyl}-N'-[2-(propane-2-sulfonyl)phenyl]-1,3,5-triazine-2,4-diamine]", "values": [{"measurement": "Kd", "setting": "PfLysRS [1]", "result": "~0.238", "unit": "µM"}, {"measurement": "increase of Tm of PfLysRS", "setting": "PfLysRS [1]; in the presence of L-lysine (500 μM)", "result": 8.0, "unit": "°C"}, {"measurement": "increase of Tm of PfLysRS", "setting": "PfLysRS [1]; without L-lysine, 10 μM PfLysRS", "result": 10.0, "unit": "°C"}, {"measurement": "IC50", "setting": "P. falciparum strain 3D7; Plasmodium falciparum, 3D7, 72 h", "result": "5.61 ± 0.26", "unit": "µM"}, {"measurement": "parasite growth and morphology", "setting": "P. falciparum strain 3D7; synchronized ring stage, 25 μM, monitored over 72 h, Giemsa smears", "result": "stopped growing completely until they eventually died"}, {"measurement": "half-life range", "setting": "[2]", "result": "22 to 85", "unit": "h"}, {"measurement": "median half-life", "setting": "[2]", "result": 35, "unit": "h"}, {"measurement": "thermal stability of HsLysRS", "setting": "HsLysRS [3]", "result": "could not increase the thermal stability"}, {"measurement": "Kd", "setting": "PfLysRS [4]", "result": 0.239, "unit": "µM"}, {"measurement": "koff", "setting": "PfLysRS [4]", "result": 0.0063, "unit": "s⁻¹"}, {"measurement": "kon", "setting": "PfLysRS [4]", "result": 26400, "unit": "M⁻¹ s⁻¹"}, {"measurement": "IC50", "setting": "HsLysRS [5]", "result": "> 250", "unit": "µM"}, {"measurement": "fold less potent on HsLysRS than on PfLysRS (IC50 ratio)", "setting": "HsLysRS [5]; ATP hydrolysis IC50 HsLysRS versus PfLysRS", "result": "over 380 fold"}, {"measurement": "IC50", "setting": "[6]", "result": "> 1000", "unit": "µM"}]}
{"smiles": "C[C@H]1CCC[C@H](C[C@H]2Cc3cc(O)cc(O)c3C(=O)O2)O1", "note": "[cladosporin]", "values": [{"measurement": "IC50", "setting": "PfLysRS [7]", "result": "~0.004", "unit": "µM"}, {"measurement": "fold lower IC50 on PfLysRS compared to other eukaryotic LysRSs including human LysRS", "setting": "PfLysRS [7]", "result": 1000, "unit": "fold"}]}
